According to patent publication US20230053119A1, “FUSION POLYPEPTIDE COMPRISING Fc REGION OF IMMUNOGLOBULIN AND GDF15” (LG CHEM, LTD., priority 2019, published 2023):

Assays:
Assay type in all cases: in vivo
[1] = Pharmacodynamic (PK) test in SD rat, serum concentration by Human GDF15 ELISA; conditions: 2 mg/kg subcutaneous
Procedure: For evaluation of pharmacodynamic characteristics when each polypeptide was subcutaneously administered to rats, polypeptide IgG4-GDF or IgG4-GDF(CRL) was subcutaneously administered in an amount of 2 mg/kg, respectively, to SD Rat (Koatech, male, 7 weeks, about 250g; n=3 each; test group), and at a fixed time, blood was collected about […] through a caudal vein. Blood collecting was progressed before administration of the fusion polypeptide, in 1, 2, 4, 8, 24, 48, 72, 96, 168, 240 and 336 hours after administration. As a control group for comparison of pharmacodynamic characteristics, GDF15 (R&D Systems) was subcutaneously administered in an amount of 2 mg/kg by the same method as above to prepare GDF15 administration group.
After administering to SD Rat as above, blood collected by time-point was centrifuged to obtain serum, and ELISA was performed using Human GDF15 Immunoassay (SGD150, R&D Systems), to measure the concentration in serum over time for each polypeptide.

[2] = tested on: DIO mouse model (C57BL/6J-DIO); assay: Feed intake in DIO mice after HIgG1-GDF(CRL) / IgG1-GDF(CRL) administration; conditions: 2.86 nmol/kg s.c. Daily Inj. for 5 days
Procedure: (§1) The pharmacological effect of the fusion polypeptide produced and purified in Example 1 was tested in mice (C57BL/6J, 6 weeks, male, 100 mice; RaonBio).
(§2) All the control material and test materials were administered subcutaneously. The administration route of the control material and test materials was selected as a subcutaneous route depending on the clinical intended route of administration.
(§3) The dose of all the control material and test materials was 5 mL/kg, and the dose by individual was calculated on the basis of the recently measured weight, and they were administered subcutaneously once at the test start day using a disposable syringe (1 mL). […] For comparison, the control group in which the control material GDF15 was prepared, and for the comparison group in which GDF15 was administered, they were administered once a day for 5 days, 5 times in total, and all administrations were progressed from 9 AM.
(§4) In addition, after administering the test materials to mice, the feed intake was measured every day, and the amount of feeding was measured using an electronic scale by each breeding box, and then the residual amount was measured to calculate the feed intake a day. Individuals who severely ate the feed were excluded from the measurement.

[3] = tested on: DIO mouse model (C57BL/6J-DIO); assay: Weight change in DIO mice after HIgG1-GDF(CRL) / IgG1-GDF(CRL) administration; conditions: for Body Weight, Mean: 2.86 nmol/kg s.c. Daily Inj. for 5 days
Procedure: as §1, §2
as §3, with “and they were administered subcutaneously once at the test start day using a disposable syringe” left out
The weight of each mouse was measured at the day of the start of administration of the test materials (before administration), and then the weight was measured every day (measured by 9 days at maximum). The dose of the test materials was determined on the basis of the most recently measured weight.

[4] = tested on: DIO mouse model (C57BL/6J-DIO); assay: Weight change in DIO mice after IgG4-GDF / IgG4-GDF(CRL) administration; conditions: for Body Weight, Mean: 3 nmol/kg s.c. Daily Inj.
Procedure: as §1
The test materials (IgG4-GDF ? GDF IgG4-GDF(CRL)) and control material
(§5) Semaglutide (Bachem) were subcutaneously administered. The dose of all the control material and test materials was 5 mL/kg, and the dose by individual was calculated on the basis of the recently measured weight, […] (1 mL). […] For a comparison group in which Semaglutide was administered, Semaglutide were administered every day once a day. All administrations were progressed from 9 AM.
The weight of each mouse was measured at the day of the start of administration of the test materials (before administration), and then the weight was measured every day (measured by 19 days at maximum). The dose of the test materials was determined on the basis of the most recently measured weight.

[5] = tested on: DIO mouse model (C57BL/6J-DIO); assay: Feed intake in DIO mice after IgG4-GDF / IgG4-GDF(CRL) administration; conditions: 3 nmol/kg s.c. Daily Inj.
Procedure: as §1, §5, §4

GDF15: control material GDF15 (R&D Systems), Growth/differentiation factor 15 not fused with Fc
AUCextp ([1]; [(AUCinf − AUClast)/AUCinf]*100): 0.463%
AUClast ([1]; serum): 4860 ng·h/mL
Cmax (maximum blood concentration) ([1]; serum): 443 ng/mL
Tmax (time to reach maximum blood concentration) ([1]; serum): 1 h
half-life ([1]; serum): 19 h
t1/2 (elimination half-life) ([1]; serum): 19.0 h
AUCinf ([1]; serum, extrapolated to infinite time): 4880 ng·h/mL
Feed intake a day, Mean ([2]; Day 0): 2.8
Feed intake a day, Mean ([2]; Day 1): 2.4
Feed intake a day, Mean ([2]; Day 2): 2.7
Feed intake a day, Mean ([2]; Day 3): 2.4
Feed intake a day, Mean ([2]; Day 4): 2.5
Feed intake a day, Mean ([2]; Day 5): 2.6
Feed intake a day, Mean ([2]; Day 6): 2.7
Feed intake a day, Mean ([2]; Day 7): 3.0
Feed intake a day, Mean ([2]; Day 8): 3.3
Feed intake a day, Mean ([2]; Day 9): 3.5
Body Weight, Mean ([3]; Day 0): 100 % of initial
Body Weight, Mean ([3]; Day 1): 99 % of initial
Body Weight, Mean ([3]; Day 2): 98 % of initial
Body Weight, Mean ([3]; Day 3): 97 % of initial
Body Weight, Mean ([3]; Day 4): 96 % of initial
Body Weight, Mean ([3]; Day 5): 95 % of initial
Body Weight, Mean ([3]; Day 6): 95 % of initial
Body Weight, Mean ([3]; Day 7): 95 % of initial
Body Weight, Mean ([3]; Day 8): 96 % of initial
Body Weight, Mean ([3]; Day 9): 97 % of initial
weight loss effect (in words) ([3]; daily administration, stopping administration from Day 5): weight loss effect disappeared from Day 6

Semaglutide [reference compound]
Body Weight, Mean ([4]; Day 0): 100 % of initial
Body Weight, Mean ([4]; Day 1): 94 % of initial
Body Weight, Mean ([4]; Day 2): 91 % of initial
Body Weight, Mean ([4]; Day 3): 90 % of initial
Body Weight, Mean ([4]; Day 4): 87 % of initial
Body Weight, Mean ([4]; Day 5): 87 % of initial
Body Weight, Mean ([4]; Day 6): 85 % of initial
Body Weight, Mean ([4]; Day 7): 86 % of initial
Body Weight, Mean ([4]; Day 8): 83 % of initial
Body Weight, Mean ([4]; Day 9): 85 % of initial
Body Weight, Mean ([4]; Day 10): 84 % of initial
Body Weight, Mean ([4]; Day 11): 82 % of initial
Body Weight, Mean ([4]; Day 12): 81 % of initial
Body Weight, Mean ([4]; Day 13): 82 % of initial
Body Weight, Mean ([4]; Day 14): 81 % of initial
Body Weight, Mean ([4]; Day 15): 79 % of initial
Body Weight, Mean ([4]; Day 16): 79 % of initial
Body Weight, Mean ([4]; Day 17): 78 % of initial
Body Weight, Mean ([4]; Day 18): 77 % of initial
Body Weight, Mean ([4]; Day 19): 77 % of initial
weight loss (in words) ([4]; daily administration): weight loss was consistent
Feed intake a day, Mean ([5]; Day 0): 3.7
Feed intake a day, Mean ([5]; Day 1): 2.1
Feed intake a day, Mean ([5]; Day 2): 3.3
Feed intake a day, Mean ([5]; Day 3): 2.8
Feed intake a day, Mean ([5]; Day 4): 2.3
Feed intake a day, Mean ([5]; Day 5): 2.9
Feed intake a day, Mean ([5]; Day 6): 2.7
Feed intake a day, Mean ([5]; Day 7): 3.2
Feed intake a day, Mean ([5]; Day 8): 2.4
Feed intake a day, Mean ([5]; Day 9): 3.7
Feed intake a day, Mean ([5]; Day 10): 2.7
Feed intake a day, Mean ([5]; Day 11): 2.5
Feed intake a day, Mean ([5]; Day 12): 2.4
Feed intake a day, Mean ([5]; Day 13): 3.0
Feed intake a day, Mean ([5]; Day 14): 2.5
Feed intake a day, Mean ([5]; Day 15): 2.1
Feed intake a day, Mean ([5]; Day 16): 2.5
Feed intake a day, Mean ([5]; Day 17): 2.0
Feed intake a day, Mean ([5]; Day 18): 2.2
Feed intake a day, Mean ([5]; Day 19): 3.7
